These are literature values, as cited in patent US6770295B1 (Pharmacia AB, priority 1998, dated 2004).

For this series the following is noted: following oral administration.

Regarding `CCN(CC)CC#CCOC(=O)C(O)(c1ccccc1)C1CCCCC1` (racemic) [Oxybutynin, 4-diethylamino-2-butynyl-phenylcyclohexylglycolate], the duration entry is given as “three to six”.
